Experimental findings from ChEMBL document CHEMBL3507680, “University of Dundee, Gates Library screen for HepG2 cell viability” are described below.

A short description of this data set: Human HepG2 cell viability assay in 384 well format. The conditions noted are these: HepG2 cells, read-out: Inhibition. Also on record: dose 125 nL, time 70.5 hour; cytotoxicity at 70.5 h: concentration not given beside the values. It is filed as toxicity, cell-based.
For `CC(C)CCN1C[C@H]2C[C@H](C(=O)NCC(C)C)[C@@H](C1)O2`, the cytotoxicity at 70.5 h is -2.84%.
As to `O=C(c1cccnc1-n1cncn1)N1CCN(C2CCCC2)CC1`, the cytotoxicity at 70.5 h is -5.59%.
As to `COCCCN1CC2(CCN(Cc3ncc[nH]3)CC2)CC1=O`, the cytotoxicity at 70.5 h is -4.09%.
The value for `CNc1cc2c(nn1)CCN(C(=O)c1cccc3c1OCO3)C2` was -16.7%.
As to `COc1cccc(F)c1C(C)NC(=O)NCc1cnc(C)s1` (stereo not drawn), the cytotoxicity at 70.5 h is -1.56%.
The value for `Clc1ccc(C2(NCc3noc(C4CC4)n3)CCCC2)cc1` was -0.425%; that for `c1cnnc(N2CCCC2CNc2ncnc3sccc23)c1` (stereo not drawn) was -7.82%; that for `CCC[C@H]1CN(Cc2ccc(N(C)C)nc2)C[C@@H]1NC(=O)CO` was -6.62%.
As to `Cc1cnc(C(=O)NC(COCC(C)C)c2ccco2)cn1` (stereo not drawn), the cytotoxicity at 70.5 h is -0.693%.
For the compound `CC(=O)N1CCC2(CCCN(C(=O)c3ccccc3)C2)C1` (stereo not drawn), the cytotoxicity at 70.5 h stood at 6.68%.
For the compound `O=C1CC2(CCN(S(=O)(=O)C3CC3)C2)CN1c1cncnc1` (stereo not drawn), the cytotoxicity at 70.5 h turned out to be 4.54%.
In the case of `N#Cc1ccccc1CN1C[C@H]2CC[C@@H]1CN(C(=O)c1cccnc1)C2`, the cytotoxicity at 70.5 h was -10.2%.
For the compound `Cc1nc(-c2ccccc2)n(CC(=O)NC(C2CC2)C2CC2)n1`, the cytotoxicity at 70.5 h is -4.87%.
The value for `CCNC(=O)C1CCN(c2nccc(C3CCCC3)n2)C1` (stereo not drawn) was -17.7%; that for `COCCCN1C(=O)CC[C@H]2CN(c3cc(C(N)=O)ccn3)CC[C@H]21` was -7.97%; that for `Cc1cc(C(F)(F)F)nc(CNC(=O)CCn2cccn2)n1` was -6.34%.
For `Cc1cc2ccccc2n1CCC(=O)N1CCCCC1CCO` (stereo not drawn), the cytotoxicity at 70.5 h is -6.95%.
The value for `COCCn1ccnc1CN1CCc2[nH]cnc2C1c1ccccn1` (stereo not drawn) was -11.2%; that for `O=C(Nc1ccccc1C(=O)NCCCN1CCOCC1)c1ccco1` was -6.18%; that for `CC(C)C1CC(=O)Nc2c1cnn2Cc1ccco1` (stereo not drawn) was -15.8%.
Take `Cc1cc(C)n(Cc2ccc(-c3noc(C(=O)NC[C@@H](C)O)n3)cc2)n1`: the cytotoxicity at 70.5 h is -14.8%.
On to `CCOc1cc(C)nc(N2CCN(C(=O)c3cc(Cl)c[nH]3)CC2)n1`, for which the cytotoxicity at 70.5 h is -8.74%.
The value for `CN1CCCN(C(=O)c2cc(CN(C)CCc3ccccc3)on2)CC1` was -10.4%; that for `N#Cc1cccc(C(=O)N2CC[C@H]3[C@H]2CCN3CC2CCOCC2)c1` was 26.3%; that for `C=C(C)COc1cccc(C(=O)NCCCc2nnn[nH]2)c1` was -12.4%.
The value for `c1ccc(N2CC[C@H](OCC3CC3)[C@@H]2Cc2cccnc2)nc1` was -3.44%; that for `CS(=O)(=O)c1ccc(C(=O)N2CCCC(n3cccn3)C2)cc1` (stereo not drawn) was 0.802%.
With `COCC(=O)N1CCCC(C(=O)N(C)CCn2ccnc2C)C1` (stereo not drawn), the cytotoxicity at 70.5 h was determined as 3.1%.
`c1cnnc(N2CCCC(NCc3cccc4c3OCO4)C2)c1` (stereo not drawn): the cytotoxicity at 70.5 h stood at 1.39%.
`Cc1cc(C)n(CC2CCCN2CC(=O)N(C)Cc2ccc(C)o2)n1` (stereo not drawn): the cytotoxicity at 70.5 h stood at 18%.
With `O=C(Nc1ccc(Cn2cccn2)cc1)N1CCC(CO)CC1`, the cytotoxicity at 70.5 h was -5.76%.
`CN1CCOC(CNCc2cccc(OC(F)(F)F)c2)C1` (stereo not drawn): the cytotoxicity at 70.5 h was -11.5%.
Turning to `Cc1ncsc1C(=O)NC1CCN(c2ncccc2C#N)CC1`, the cytotoxicity at 70.5 h was -6.11%.
The value for `Cc1cc(F)c(S(=O)(=O)Nc2ccn(CCCC#N)n2)cc1F` was -16%; that for `CC(NC(=O)NCc1ccccc1Cl)c1ccccn1` (stereo not drawn) was 19.4%; that for `Cc1cc(NC(=O)CN2CCn3c(nnc3C3CC3)C2)on1` was -2.62%.
The value for `CNC(=O)[C@H]1C[C@@H]2CN(S(=O)(=O)c3ccc(C)c(F)c3)C[C@@H]2N1C` was -3.95%.
`CC(Cc1ccc2c(c1)OCO2)c1cn(CCc2c[nH]cn2)nn1` (stereo not drawn): the cytotoxicity at 70.5 h was -6.47%.
Consider `c1cc(CN2CCC(c3nnc4n3CCCCC4)CC2)c2c(c1)OCO2`, for which the cytotoxicity at 70.5 h is -5.9%.
The value for `Cc1noc(C)c1CCC(=O)N1CCN(CCn2cncn2)CC1` was -1.34%; that for `CNC(=O)c1cccc(NC(=O)Cn2nc(-c3cccs3)oc2=O)c1` was 20.9%; that for `CCn1ncc(CN2C[C@@H]3CCCN3C[C@@H]2CCSC)c1C` was -6.31%.
Consider `CCNc1cc2c(nn1)CCN(C(=O)c1cc(C)no1)C2`, for which the cytotoxicity at 70.5 h was -3.88%.
Consider `CC(C)(C)[S+]([O-])CCNC(=O)c1ccc(Cl)c2cccnc12` (stereo not drawn), for which the cytotoxicity at 70.5 h was -6.1%.
Consider `CC(C)Cc1noc(C2CCCN(C(=O)CCc3cnn(C)c3)C2)n1` (stereo not drawn), for which the cytotoxicity at 70.5 h is -8.4%.
For `COCCN1CCC2(CC1)CN(C(=O)C1CC1)c1ccc(F)cc12`, the cytotoxicity at 70.5 h is -3.73%.
Regarding `CCN1CC(C(=O)NCc2noc(Cc3ccccc3)n2)CCC1=O` (stereo not drawn), the cytotoxicity at 70.5 h was -12.4%.
As for `CCCSCC(=O)N1CCCC(CO)(CCC)C1` (stereo not drawn), the cytotoxicity at 70.5 h was -22.8%.
In the case of `CN(C)c1ncc(NS(=O)(=O)c2ccc(OC(F)(F)F)cc2)cn1`, the cytotoxicity at 70.5 h came out at 3.34%.
In the case of `CC(C)N1CCCC2(CCN(Cc3nncn3C(C)C)C2)C1=O` (stereo not drawn), the cytotoxicity at 70.5 h was -0.727%.
The value for `COC(=O)c1ccc(NC(=O)CCNCc2ccco2)cc1` was -7.22%; that for `CN(C)C(CNS(=O)(=O)c1ccc(F)cc1F)c1cccn1C` (stereo not drawn) was -13.1%; that for `NC(=O)c1cccc(CCNCc2cnc(-c3cccs3)s2)c1` was -12.1%.
The value for `NC(=O)C1(c2cnccn2)CCCN1Cc1cccc(Cl)c1` (stereo not drawn) was -2.75%; that for `Cc1cnc(C(=O)NCc2cccnc2OC(C)C)cn1` was 21%.
Turning to `Cc1cncc(NC(=O)c2ccc(CN3CC[C@H](O)C3)cc2)c1`, the cytotoxicity at 70.5 h worked out at 19.1%.
Take `N#Cc1ccc(NCC(=O)Nc2ncn(Cc3cccnc3)n2)cc1`: the cytotoxicity at 70.5 h was -6.44%.
As to `Cc1c(C(=O)N2C[C@@H](CN(C)CCO)[C@@H](CO)C2)sc2ccccc12`, the cytotoxicity at 70.5 h is -9.44%.
Regarding `C/C=C(/C)C(=O)NS(=O)(=O)c1ccc(C(F)(F)F)cn1`, the cytotoxicity at 70.5 h was -18.7%.
For `CN1CCCCc2c1nc1c(c2N)CCC1.O=C(O)c1cc([N+](=O)[O-])ccc1Cl`, the cytotoxicity at 70.5 h is -11.7%.
The value for `O=C(NCCNS(=O)(=O)c1cccc(Cl)c1)C1CCCO1` (stereo not drawn) was 6.97%; that for `COC(=O)CN(CC1CCOC1)C1CC1` (stereo not drawn) was -3.42%.
For the compound `CCOCC(O)CN1CCN(C(=O)C2CC2)CC1` (stereo not drawn), the cytotoxicity at 70.5 h is -13.7%.
For `NC(=O)C1CCCN(c2ccc(CNC(=O)c3csnn3)cc2)C1` (stereo not drawn), the cytotoxicity at 70.5 h was -6.98%.
As for `c1cc(CN2CCC[C@@H](Cn3nnc(-c4cnccn4)n3)C2)ccn1`, the cytotoxicity at 70.5 h is -2.89%.
As to `Cc1nc(C)c(C)c(N2CCC3(CCOC3)C2)n1` (stereo not drawn), the cytotoxicity at 70.5 h was 17%.
Take `COc1ccsc1C(=O)N1CCCC1c1c(C)nn(C)c1OC` (stereo not drawn): the cytotoxicity at 70.5 h is -4.7%.
With `Cc1ccc(NC2CCN(C(=O)COC3CCCC3)CC2)nn1`, the cytotoxicity at 70.5 h was -8.07%.
The value for `Clc1cccc(Cl)c1CNCCOc1ccccn1` was 11.6%; that for `CCCS(=O)(=O)NC(C)c1cccc(-n2cccn2)c1` (stereo not drawn) was -6.77%.
Consider `CC(=O)N1CC[C@H]2[C@H](C[C@@H](Cn3cncn3)N2c2nccs2)C1`, for which the cytotoxicity at 70.5 h was -8.31%.
The value for `COc1ccc(-c2nnc([C@H]3CCN(CC4CC4)C3)o2)cc1` was 2.78%.
Turning to `Cn1ccc(NC(=O)Cc2ccccc2F)n1`, the cytotoxicity at 70.5 h was 19.9%.
In the case of `CCCc1noc(CCC(=O)N2CCCC2c2ccc(OC)cc2)n1` (stereo not drawn), the cytotoxicity at 70.5 h is -16.8%.
The value for `O=C1OCCN1c1cccc(CNCc2cc(F)ccc2F)c1` was 22.6%; that for `CC(=O)N1CCO[C@@H]2CN(C(=O)c3cc(C)oc3C)CC[C@@H]2C1` was 13%; that for `O=C(NCCCNC(=O)c1cccc(O)c1)NCc1ccccc1F` was -9.83%.
In the case of `CC(C)NC(=O)Cn1cc(-c2ccccc2)ncc1=O`, the cytotoxicity at 70.5 h was -7.17%.
On to `c1cncc(OCc2nc(C3CC3)nn2-c2ccc3c(c2)OCCO3)c1`, for which the cytotoxicity at 70.5 h amounted to 14.2%.
In the case of `CCOc1ccccc1C(CC(=O)O)NC(C)=O` (stereo not drawn), the cytotoxicity at 70.5 h was -4.62%.
`COc1ccc(N(C)C(=O)C2CN(C)CCO2)cc1Cl` (stereo not drawn): the cytotoxicity at 70.5 h amounted to 8.7%.
As to `NS(=O)(=O)c1cnn(-c2ccc(NC(=O)C3CCCCC3)cn2)c1`, the cytotoxicity at 70.5 h was -0.503%.
The value for `CCN(C(=O)CN1CCCC1c1ccc(OC)cc1)c1ccccc1C` (stereo not drawn) was -0.0656%.
Turning to `CCn1cc(CN2CCC(O)(Cn3nc(C)ccc3=O)CC2)cn1`, the cytotoxicity at 70.5 h was -4.18%.
In the case of `Cc1[nH]ncc1CCCNC(=O)Nc1ccccc1`, the cytotoxicity at 70.5 h was found to be 14.5%.
As to `O=C(C1CCCC1)N1CCC(C(O)c2ccc(F)cc2)CC1` (stereo not drawn), the cytotoxicity at 70.5 h was -6.02%.
The value for `CC(C)(C)c1n[nH]c(C2CN(CCNC3CCCCC3)CCO2)n1` (stereo not drawn) was -1.09%.
For `CS(=O)(=O)N1CCC(C(=O)Nc2nnc(C(F)(F)F)[nH]2)CC1`, the cytotoxicity at 70.5 h was -6.85%.
On to `CCn1ncc2c1C(COCC1CC1)N(C(=O)c1ccncn1)CC2` (stereo not drawn), for which the cytotoxicity at 70.5 h is -11.3%.
In the case of `COC(=O)N1CCC(NC(=O)CC(C)CCc2ccccc2)CC1` (stereo not drawn), the cytotoxicity at 70.5 h is -14%.
On to `COc1c(C2CCCN2Cc2nccn2C)c(C)nn1C` (stereo not drawn), for which the cytotoxicity at 70.5 h was 2.44%.
Take `O=C(CN1CCN(C(=O)Cc2ccc3c(c2)OCCO3)CC1)NC1CC1`: the cytotoxicity at 70.5 h was -12.7%.
Regarding `COC(=O)CCC(=O)N(Cc1ccc2cc[nH]c2c1)C1CC1`, the cytotoxicity at 70.5 h is -17.3%.
Take `Cc1nccc([C@H]2C[C@@H]3CCN(S(=O)(=O)N(C)C)C[C@H]3O2)n1`: the cytotoxicity at 70.5 h is -10.6%.
Take `N#Cc1cc(N2CCC(S(N)(=O)=O)CC2)c2ccccc2n1`: the cytotoxicity at 70.5 h is -2.54%.
Take `CN(C)CCN1CC[C@@H]2O[C@@H](COCC(=O)N3CCCC3)CC[C@@H]21`: the cytotoxicity at 70.5 h is -0.268%.
Take `COCC(=O)N1CCCC1c1ccc(C(=O)NCc2ccccc2Cl)s1` (stereo not drawn): the cytotoxicity at 70.5 h was -11.5%.
The value for `CC(=O)N1CCOCC2(CCCNC2)C1` (stereo not drawn) was -9.88%.
